Measurements as given in the NIST ThermoML archive (doi:10.1021/je049801y).
Numbers after ± are expanded uncertainties.

Conditions: Crystal

Row | Normal melting temperature [°C] | SMILES
1 | 122.4 ± 1 | O=C(O)c1ccccc1 [benzoic acid]
2 | 182.0 ± 1 | Cc1ccc(C(=O)O)cc1 [4-methylbenzoic acid]
3 | 430.0 ± 1 | O=C(O)c1ccc(C(=O)O)cc1 [1,4-benzenedicarboxylic acid]
4 | 348.1 ± 1 | O=C(O)c1cccc(C(=O)O)c1 [1,3-benzenedicarboxylic acid]
